According to patent US6375926B1, “Labelled elastase inhibitors” (Amersham International PLC, priority 1996, dated 2002):

Tests used:
[1] = biological target: T1, HLE (human leucocyte elastase) (Homo sapiens, UniProt P08246); assay: Measurement of HLE inhibition potency (kinact/Ki); assay type: biochemical; set-up: Potency (M/sec), kinact/Ki: unit not given here; conditions: for kinact/Ki (human elastase): as listed in Table 24 beside the radiolabelled compounds
T1 sequence (P08246 30-267): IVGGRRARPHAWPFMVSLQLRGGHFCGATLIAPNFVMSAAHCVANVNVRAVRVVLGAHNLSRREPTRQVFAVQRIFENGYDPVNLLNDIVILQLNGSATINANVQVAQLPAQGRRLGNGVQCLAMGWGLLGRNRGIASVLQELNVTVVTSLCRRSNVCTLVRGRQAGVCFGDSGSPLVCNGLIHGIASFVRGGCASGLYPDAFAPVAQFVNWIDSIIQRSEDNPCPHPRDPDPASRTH
Description: Inhibitor potency against HLE is described by the parameter kinact/Ki as previously reported [Knight et al., Biochem., 8160-8170, (1992)]. Lyophilised enzyme was reconstituted with TrisHCl buffer, 100 mM, 0.5M NaCl at 0.05 units/ml (approximately nanomolar concentration) in a final reaction volume of 1 ml to which was added methoxysucc-ala-ala-pro-val-pNA substrate (1 mM) and the elastase inhibitor dissolved in DMSO. The reaction was monitored by detecting the change of absorbance at 410 nm (hydrolysis of the substrate releasing p-nitroaniline) over a timescale of 25 minutes. Values of kinact/Ki were estimated according to the Knight et al method.

[2] = system: isolated human white cells (granulocytes; monocytes + lymphocytes); assay: In vitro cell uptake in isolated human white cells; assay type: cell-based; conditions: for selectivity for granulocytes over a mixture of monocytes/lymphocytes: approximately equivalent numbers of monocytes/lymphocytes and granulocytes present; for % uptake in Gran. (granulocytes), WHITE CELLS / % uptake in Mon. (monocytes + lymphocytes), WHITE CELLS: isolated human white cells, 30 minutes at 37° C., radiolabelled compound
Description: Fresh blood (30-120 ml) was anticoagulated with 1.5% ACD solution and sedimented by addition of 2 ml Hespan per 10 ml blood for 90 minutes at room temperature. The leucocyte rich platelet rich plasma supernatant was removed and centrifuged at 150 g for 5 minutes, yielding a leucocyte rich pellet and platelet rich plasma (PRP). The PRP was centrifuged at 4000 g to pellet the platelets leaving a cell free plasma (CFP). The leucocyte pellet was resuspended in a 50:50 mixture of HBSS and CFP and incubated with the radioactive compound for 30 minutes at 37° C. Free radioactive material was then removed from the cells by addition of an excess of HBSS:CFP and centrifugation of the leucocytes at 150 g for 7 minutes. The supernatant and cell pellet were taken for radioactive counting for calculation of percentage cell uptake. The distribution of radioactivity within the cell pellet was assessed by separation of the cell types using Percoll density gradient centrifugation (38%, 55% and 73% Percoll in HBSS step gradients). The residual plasma and free activity was recovered from the top of the gradient, the mononuclear cells (lymphocytes and monocytes) from the interface between 38% and 55%, and the granulocytes were recovered from the interface between 55% and 73% Percoll.

[3] = system: E. coli infected rats (experimental abscess); assay: In vivo biodistribution in rats bearing experimental abscesses, direct intravenous injection; set-up: species or system male Wistar rats; conditions: for Relative conc. In infected area / Infected/normal / Infected/blood: directly injected i.v.; for Relative conc. In infected area: % injected dose in a % body weight; for Infected/normal: ratio of % id/g infected area to contralateral thigh; for Infected/blood: ratio of %/g infected area to blood
Description: (§1) The model: into the right gracilis (thigh) muscle of male Wistar rats (250-325 g) were injected 1 ml/kg of an E. coli suspension containing >> 5×10^8/ml organisms.
(§2) Validation: the model was validated for use in the development of diagnostic imaging agents of infection/inflammation by the intravenous injection of ^99mTc-HMPAO ex-vivo labelled human wbc or ^67Ga-citrate when the abscesses were 24 hours old. Animals were dissected between 4 and 24 hours after injection. ^99mTc-labelled red blood cells were used as a negative control.
The animals were sacrificed at either 4 or 24 hours post injection and relevant tissues dissected.

[4] = system: mixed human red/white cells (granulocytes, monocytes + lymphocytes, erythrocytes); assay: In vitro cell uptake in mixed human red/white cells; assay type: cell-based; conditions: radiolabelled compound
Description: The radioactive compound was also incubated with an isolated leucocyte preparation to which an erythrocyte fraction had been added back. The packed erythrocytes obtained after blood sedimentation were washed twice with HBSS and then resuspended in their original blood volume with HBSS. Leucocytes obtained from 30 ml blood were resuspended in 0.5 ml erythrocyte suspension and 0.5 ml CFP. The cell suspension was then incubated with compound as above. Analysis of the distribution of activity in the cell pellet in the presence of red blood cells was carried out using Ficoll-Hypaque discontinuous density gradients (densities 1.04, 1.077 and 1.119 g/ml Histopaque steps).

[5] = In vivo stability of iodinated HLE inhibitors (thyroid uptake); set-up: species or system male Wistar rats; conditions: i.v. injection
Description: The in vivo stability of radioiodinated HLE inhibitors was monitored by determination of the percentage uptake in the thyroid as a function of time after administration. Thus radioiodinated compounds and ^123I free iodide were injected into male Wistar rats. The percentage of injected dose distributing to the thyroid was calculated by dissection at 4 and 24 hours post injection and counting.

[6] = system: human whole blood (granulocytes, monocytes + lymphocytes, erythrocytes); assay: In vitro cell uptake in human whole blood; assay type: cell-based; conditions: 37° C. for 1 hour, radiolabelled compound
Description: The radioactive compound was added to 1 ml whole blood anticoagulated with ACD and incubated at 37° C. for 1 hour. The blood was diluted with HBSS and the cellular component separated by centrifugation. Distribution of activity within the cellular pellet was assessed by separation of cell fractions on Ficoll-Hypaque gradients as above.

[7] = system: E. coli infected rats (experimental abscess); assay: In vivo biodistribution of ex vivo labelled human leucocytes in E. coli infected rats; set-up: species or system male Wistar rats; conditions: ex vivo labelled human leucocytes injected i.v.
Description: as §1, §2
Screening of Ex vivo labelled human leucocytes in E. coli infected rats: A mixed population of human leucocytes was incubated with elastase inhibitor for 30 minutes at 37° C. The cells were then spun down and resuspended in a known volume of rat plasma for intravenous injection into rats bearing a 24 hour old abscess. Animals were dissected at 4 and 24 hours post injection.

[8] = measured for non-radioactive iodine-labelled compounds and unlabelled chelate conjugates

Compound | kinact/Ki (human elastase) [1] | selectivity for granulocytes over a mixture of monocytes/lymphocytes [2] | % uptake in Gran. (granulocytes), WHITE CELLS [2] [%] | % uptake in Mon. (monocytes + lymphocytes), WHITE CELLS [2] [%] | Relative conc. In infected area ([3]; 4 hrs post injection) | Infected/normal ([3]; 4 hrs post injection) | Infected/blood ([3]; 4 hrs post injection) | Relative conc. In infected area ([3]; 24 hrs post injection) | Infected/normal ([3]; 24 hrs post injection) | Infected/blood ([3]; 24 hrs post injection) | % uptake in Eryth. (erythrocytes), WHITE AND RED CELLS [4] [%] | % uptake in Gran. (granulocytes), WHITE AND RED CELLS [4] [%] | % uptake in Mon. (monocytes + lymphocytes), WHITE AND RED CELLS [4] [%] | % dose in Thyroid ([5]; 4 hours) [% dose] | % dose in Thyroid ([5]; 24 hours) [% dose] | further results
CCC1(CC)C(=O)N(C(=O)NCc2ccc(I)cc2)C1Oc1ccc(C(=O)N2CCN(C)CC2)cc1 (single isomer, unassigned) [Compound 4a] | 36000 | some degree of selectivity for granulocytes | 68.6 | 14.3 | 0.52 | 1.0 | 0.62 | 0.28 | 1.6 | 0.53 | 8.4 | 53.2 | 14.6 | 0.1 | 0.3 | Potency (M/sec), kinact/Ki [1, 8]: 63,000; uptake in the infected region compared with the ^99mTc-rbc control ([3]; ^123I-labelled, rat model of inflammation/infection): significantly better uptake in the infected region
CCC1(CC)C(=O)N(C(=O)NCCc2ccc(O)c(I)c2)C1S(=O)(=O)CCOC (stereo not drawn) [Compound 16, 4-[2-Methoxyethylsulfonyl]-1-[(4-hydroxy)(3-iodo)phenylethylaminocarbonyl]-3,3-diethyl-2-azetidinone] |  | some degree of selectivity for granulocytes | 0.55 | 0.0 |  |  |  |  |  |  | 0.6 | 0.3 | 0.6 | 0.3 | 2.4 | kinact/KI ([1]; measured for non-radioactive iodine-labelled compounds and unlabelled chelate conjugates, read-out: Potency (M/sec), kinact/Ki): 2700 M⁻¹ s⁻¹; % uptake in Eryth. (erythrocytes), WHOLE BLOOD [6]: 0.2%; % uptake in Gran. (granulocytes), WHOLE BLOOD [6]: 0.2%; % uptake in Mon. (monocytes + lymphocytes), WHOLE BLOOD [6]: 0.6%
CCC[C@@H](NC(=O)N1C(=O)C(CC)(CC)[C@@H]1Oc1cccnc1)c1ccc(I)cc1 [Compound 28, 4S-(Pyridyl-3-oxy)-1-[(R-α-n-propyl)-(4-iodo)benzylaminocarbonyl]-3,3-diethyl-2-azetidinone] | 650000 | some degree of selectivity for granulocytes | 67.4 | 14.8 | 0.22 | 1.3 | 1.1 | 0.12 | 1.2 | 1.2 | 17.5 | 41.9 | 14.9 |  |  | Potency (1/(M·s)), kinact/Ki [1, 8]: 650000 M⁻¹ s⁻¹; Infected/blood ([7]; 4 hrs post injection): 0.9; Infected/normal ([7]; 4 hrs post injection): 1.5; Relative conc. In infected area ([7]; 4 hrs post injection): 0.45; Infected/blood ([7]; 24 hrs post injection): 0.9; Infected/normal ([7]; 24 hrs post injection): 1.2; Relative conc. In infected area ([7]; 24 hrs post injection): 0.16
[123IH] [[^123I]-iodide, reference compound] |  |  |  |  |  |  |  |  |  |  |  |  |  | 6.8 | 22.2 | 
